This is an account of results in patent US4537896A, “Thrombin inhibiting arylsulfonyl guanidinophenylalanine amides” (KabiVitrum AB, priority 1982, dated 1985).

Assay [1] deals with thrombin. The settings on record: literature; cited from earlier work.
The next assay has as its system trypsin. The settings on record: literature; cited from earlier work.
In a further assay the target is T1, human thrombin (Homo sapiens, UniProt P00734).
T1 construct: human thrombin; purchased Sigma Chemical Co., St. Louis, U.S.A
Put plainly: Determination of Ki, inhibition of reaction of thrombin with substrate S-2238. In kind it is biochemical. The protocol: (§1) The inhibition of reaction of the enzymes (human thrombin; Sigma Chemical Co., St. Louis, U.S.A. and human factor Xa; KabiVitrum AB, Stockholm) with the substrates (S-2238 resp. S-2222, Kabi Diagnostica, Stockholm) was determined at three different substrate concentrations from 0.3 to 2 km. Six different inhibitor concentrations, which give inhibition from 40% to 90%, were incubated with the enzyme for 30 seconds at 37° C. The buffer composition, ionic strength, pH and enzyme concentration were the same as those recommended in the booklets from Kabi Diagnostica. The initial reaction velocity (ΔA/min) was measured on a recorder at 405 nm. Ki values were than graphically determined from Dixon and Lineweaver-Burk diagrams.
Ki of thrombin is given in mol/l.

The subject of assay [2] is thrombin. Briefly: Thrombin time, plasma (prolongation of coagulation time initiated by thrombin). It is filed as biochemical, dog. The settings on record: for Thrombin time, plasma: concentration of the inhibitor which doubles the thrombin time of dog plasma: Table 1, 37° C., 30 seconds incubation; for "Thrombin time" Concentration required to prolong the coagulation time by a factor of 2: Table 3. How it is done: A volume of 200 μl citrate-plasma was heated for 1 minute at 37° C. The coagulation was started by adding 10 μl fresh thrombin solution (about 5 NIH U/ml) and the coagulation time was registrated by a fibrinometer. At the inhibition experiments the plasma was incubated for 30 seconds with 10 μl inhibitor solution at different concentrations before the thrombin solutions was added.
"Thrombin time" designates the concentration (mol/l) of the inhibitor, which doubles the thrombin time of dog plasma. The Arg derivates have been synthesized according to ref. 1 and 2.Tos-Gph-OMe has been synthesized according to ref. 6.

For assay [3], the system named is thrombin. As to conditions: literature; cited from earlier work. The source holds these as a separate data set.
The next assay deals with T2, human factor Xa (Homo sapiens, UniProt P00742).
T2 construct: human factor Xa; purchased KabiVitrum AB, Stockholm
Put plainly: Determination of Ki, inhibition of reaction of factor Xa with substrate S-2222. The settings on record: Table 3; read-out: Ki FXa (converted). It is filed as biochemical. The protocol: as §1

Structures can show the parent of a compound that is named as a salt.

T2 sequence (P00742 235-488 limits assumed): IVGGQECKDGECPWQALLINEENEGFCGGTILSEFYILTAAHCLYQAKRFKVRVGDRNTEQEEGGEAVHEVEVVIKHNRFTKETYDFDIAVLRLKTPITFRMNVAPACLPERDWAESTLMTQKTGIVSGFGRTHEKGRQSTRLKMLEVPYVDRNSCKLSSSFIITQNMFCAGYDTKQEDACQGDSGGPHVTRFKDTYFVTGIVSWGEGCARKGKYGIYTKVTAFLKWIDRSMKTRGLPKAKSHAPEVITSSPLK
T2 sequence (P00742 41-179 partner limits assumed): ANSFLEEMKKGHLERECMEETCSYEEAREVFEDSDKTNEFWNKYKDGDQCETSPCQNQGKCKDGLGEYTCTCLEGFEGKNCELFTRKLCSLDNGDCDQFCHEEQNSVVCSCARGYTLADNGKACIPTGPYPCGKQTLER

Turning to `CCOC(=O)[C@H](CCCNC(=N)N)NC(=O)c1ccccc1` [BAEE, Bz-Arg-OEt], the “substrate for / split by thrombin” value in the assay with thrombin [1] was “can be split by thrombin”.

With `CCOC(=O)[C@H](Cc1ccc(NC(=N)N)cc1)NC(=O)c1ccccc1` [Bz-Gph-OEt], the substrate for trypsin result in the assay on trypsin is “comparable with Tos-Gph-OMe and Tos-Arg-OMe (TAME)”.

The Ki is a measure of affinity in units of concentration, obtained from inhibition or displacement. On human thrombin (Table 1), `CN(C)c1cccc2c(S(=O)(=O)N[C@@H](CCCNC(=N)N)C(=O)N3CCCCC3)cccc12` [Dansyl--Arg--piperidide, reference compound] gave an inhibition constant Ki of 0.09 µM. Also, the “Thrombin time, plasma: concentration of the inhibitor which doubles the thrombin time of dog plasma” value in the assay on thrombin [2] was 2.10^-6 mol/l.

In turn, `Cc1ccc(S(=O)(=O)N[C@@H](CCCNC(=N)N)C(=O)N2CCCCC2)cc1` [Tos--Arg--piperidide, reference compound] had a Ki on human thrombin (Table 1) of 5 µM.

On to `COC(=O)[C@H](Cc1ccc(NC(=N)N)cc1)NS(=O)(=O)c1ccc(C)cc1` [Tos--Gph--OMe], for which the affinity at human thrombin (Table 1) corresponds to a Ki of 7.5 µM. Moreover, the “substrate for / split by thrombin” value in the assay with thrombin [1] is recorded as “bad substrate for thrombin”. Also, the substrate for trypsin entry with trypsin was “good substrate for trypsin”. Also, the inhibition of thrombin result in the assay with thrombin [3] is “ability to inhibit the amidase- and esterase activity of thrombin”.

In turn, `CN(C)c1cccc2c(S(=O)(=O)N[C@@H](Cc3ccc(NC(=N)N)cc3)C(=O)N3CCCCC3)cccc12` [i, N^α -Dansyl-p-guanidino-Phe-piperidide hydrochloride] gave a Ki at human thrombin (Table 3) of 0.09 µM. Besides, the Ki at human factor Xa is 250 µM. For the same compound, in the assay with thrombin [2], the “Thrombin time, plasma: concentration of the inhibitor which doubles the thrombin time of dog plasma” value is given as 6.10^-7 mol/l and the “"Thrombin time" Concentration required to prolong the coagulation time by a factor of 2” value (“"Thrombin time" Concentration required” below) was 6.10^-7 mol/l.

Consider `CC1CCN(C(=O)[C@H](Cc2ccc(NC(=N)N)cc2)NS(=O)(=O)c2ccc3ccccc3c2)CC1` [ii, N^α -(Naphthalene-2-sulfonyl)-p-guanidino-Phe-4-methyl-piperidide hydrochloride], for which the Ki is 0.31 µM on human thrombin (Table 2, Gph-derivatives) and 20 µM at human factor Xa. For the same compound, the “"Thrombin time" Concentration required” value with thrombin [2] is on record as 1.10^-6 mol/l.

For `CC1CCN(C(=O)[C@H](Cc2ccc(NC(=N)N)cc2)NS(=O)(=O)c2cccc3ccccc23)CC1` [iii, α-Naphthalenesulfonyl--Gph--4-methylpiperidide], the Ki was 0.35 µM on human thrombin (Table 2, Gph-derivatives) and 370 µM at human factor Xa.

Turning to `N=C(N)Nc1ccc(C[C@H](NS(=O)(=O)c2ccc3ccccc3c2)C(=O)N2CCOCC2)cc1` [iv, β-Naphthalenesulfonyl--Gph--morpholide], the Ki on human thrombin (Table 2, Gph-derivatives) is 0.18 µM; on human factor Xa it was 50 µM. In the assay on thrombin [2], the “"Thrombin time" Concentration required” value was 8.10^-7 mol/l.

Consider `CCCCN(C)C(=O)[C@H](Cc1ccc(NC(=N)N)cc1)NS(=O)(=O)c1cccc2c(N(C)C)cccc12` [ix], for which the figures for the Ki at human thrombin (Table 3) and at human factor Xa were 0.35 µM and 130 µM, respectively. For the same compound, the “"Thrombin time" Concentration required” value in the assay on thrombin [2] was 2.5.10^-7 mol/l.

For `Cc1ccc(S(=O)(=O)N[C@@H](Cc2ccc(NC(=N)N)cc2)C(=O)N2CCCCC2)cc1` [v, Tos--Gph--piperidide], the affinity at human thrombin (Table 2, Gph-derivatives), expressed as Ki, was 0.8 µM. In addition, the Ki on human factor Xa is 250 µM. Moreover, in the assay on thrombin [2], the “Thrombin time, plasma: concentration of the inhibitor which doubles the thrombin time of dog plasma” value is given as 1.10^-6 mol/l and the “"Thrombin time" Concentration required” value is 1.10^-6 mol/l.

Take `CN(C)c1cccc2c(S(=O)(=O)N[C@@H](Cc3ccc(NC(=N)N)cc3)C(=O)N3CCCCCC3)cccc12` [vi]: the Ki on human thrombin (Table 3) is 0.08 µM; on human factor Xa it was 300 µM.

Take `CCCC1CCN(C(=O)[C@H](Cc2ccc(NC(=N)N)cc2)NS(=O)(=O)c2cccc3c(N(C)C)cccc23)CC1` [vii]: the inhibition constant Ki on human thrombin (Table 3) was 0.23 µM; at human factor Xa, 200 µM. The “"Thrombin time" Concentration required” value with thrombin [2] was 1.5.10^-5 mol/l.

`CN1CCN(C(=O)[C@H](Cc2ccc(NC(=N)N)cc2)NS(=O)(=O)c2cccc3c(N(C)C)cccc23)CC1` [viii]: the Ki on human thrombin (Table 3) was 0.7 µM; on human factor Xa, 300 µM. In the assay on thrombin [2], the “"Thrombin time" Concentration required” value is recorded as 1.6.10^-7 mol/l.
